System: Episkin™ reconstructed epidermides
Assay: Diffusion of radioactively labelled caffeine through Episkin reconstructed epidermides (barrier function)
Assay type: cell-based
Conditions: 200 μg/ml; for Reduction of the passage of caffeine after 2 hours of application (in %): relative to the control
Procedure: Hydroxyapatite in the form of particles sold under the name Hydroxysomes™ by LSC and their combination with a calcium D-pantetheine sulfonate sold by SOGO Pharmaceutical were tested on an in vitro model to evaluate the overall effect of this combination on the barrier function of the skin.
This test consists in applying the test active agents to Episkin™ reconstructed epidermides differentiated on D13, and then, after incubation for 5 days, in applying radioactively labelled caffeine and monitoring the diffusion of the labelled caffeine through the reconstructed epidermides.
Vitamin C, which is known to improve the epidermal barrier function via stimulation of the synthesis of the epidermal lipids, is used as a reference molecule for this test (positive control). Water is used as a negative control.
Differentiated (D13) Episkin™ epidermides were placed in 12-well plates containing 2 ml of differentiation medium and were precultured at 37° C. and 5% CO2 for 24 hours. After incubation, the epidermides were treated topically with 100 μl of each concentration of test product or of the reference product (vitamin C).
Control epidermides were treated topically with 100 μl of water.
The epidermides were then incubated at 37° C. and 5% CO2 for 5 days, with changing of the medium and new application of the active agents after 2 days.
The treatments were performed in quintuplicate (n=5).
Four epidermides were used for the passage of caffeine and one “control” epidermis was kept to perform histology at the end of the experiment.
After treatment with the test active agents and the reference product (vitamin C), the epidermides were washed and the caffeine was applied to the surface of each epidermis at a rate of 100 μl containing 2 μCi/ml (0.04 mM) of radioactive caffeine and 0.35 mM of cold caffeine, which corresponds to about 500 000 cpm total.
The % activity of caffeine after 2 hours of application was measured.

Question: Which results are given for O=C1O[C@H]([C@@H](O)CO)C(O)=C1O [Vitamin C]?
Answer: activity at 200 µg/mL (topical 5 days, caffeine after 2 hours of application, read-out: % activity relative to the control): 59%; Reduction of the passage of caffeine after 2 hours of application (in %): −41%; Reduction of the passage of caffeine after 2 hours of application (in %) (listed as vitamin C): −41%

Reference: patent US20080160088A1, “COMPOSITION CONTAINING HYDROXYAPATITE AND A CALCIUM SALT” (L'OREAL, priority 2006, published 2008)
